Data from US20250332173A1, “COMPOUNDS AND METHODS FOR MODULATING NUCLEIC ACID SPLICING” (REMIX THERAPEUTICS INC., priority 2021, published 2025).
Like-named read-outs stand apart in the source and are kept apart here.

Assays:
SMN2 mRNA = test: RT-qPCR splicing assay, SMN2 canonical junction (CJ) mRNA; assay type: cell-based, human; settings: Homo sapiens
Outline: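 A673 or K562 cells were treated for 24 h at 37 °C with compound in 11-point 3-fold dilution (top 10 uM final, DMSO ≤0.25%). Lysates then went to one-step RT-qPCR measuring canonical-junction mRNA, normalized to GAPDH, GUSB or PPIA.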

Target C = test: HiBiT protein abundance assay, Target C (Promega Nano-Glo HiBiT Lytic Detection System, knock-in K562 cell line); assay type: cell-based, human; settings: Homo sapiens, K562, 24 h, HiBiT K562 cell line, 24 hours, top dose 10 μM; read-out: Effect on protein abundance, Target C (IC50 category)
Outline: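 HiBiT knock-in K562 cells (10,000/well) were treated for 24 h at 37 °C with a 10-point 3-fold dilution series, top final concentration 10 μM, DMSO ≤0.25%. Lytic HiBiT luminescence was read, normalized to unmodified K562 and DMSO-treated controls, and IC50 was interpolated from a four-parameter logistic fit.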

HTT mRNA = test: RT-qPCR splicing assay, HTT canonical junction (CJ) and alternative junction (AJ) mRNA; assay type: cell-based, human; settings: Homo sapiens; for AC50: increase in HTT alternative junction (AJ) mRNA, read-out: HTT AJ AC50
Outline: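 A673 or K562 cells were treated for 24 h at 37 °C with an 11-point 3-fold compound dilution series (top final concentration 10 uM, DMSO ≤0.25%). After lysis, one-step TaqMan RT-qPCR quantified junction transcripts, normalized to PPIA for A673 or to GAPDH/GUSB for K562.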

[1] = system: K562 (human chronic myelogenous leukemia) cells; test: Cell Titer Glo 2.0 cell viability assay; assay type: cell-based; settings: Homo sapiens, K562, 72 h, K562 cells, 72 hours, Cell Titer Glo 2.0; read-out: K562 GI50
[2] = canonical junction qPCR panel, Table 5, read-out: SMN2 (decrease in CJ mRNA levels, IC50)
[3] = decrease in HTT canonical junction (CJ) mRNA, RT-qPCR, read-out: HTT CJ IC50
[4] = canonical junction qPCR panel, Table 5, read-out: HTT (decrease in CJ mRNA levels, IC50)
[5] = Table 5 panel, canonical junction qPCR, compound concentration having 50% response in CJ decrease, read-out: SMN2 IC50 (decrease in CJ mRNA levels)
[6] = Table 5 panel, canonical junction qPCR, compound concentration having 50% response in CJ decrease, read-out: HTT IC50 (decrease in CJ mRNA levels)

Compound | IC50 (SMN2 mRNA; [2]) [nM] | IC50 (Target C) [nM] | IC50 (HTT mRNA; [3]) [nM] | IC50 (HTT mRNA; [4]) [nM] | GI50 [1] [nM] | IC50 (SMN2 mRNA; [5]) [nM] | IC50 (HTT mRNA; [6]) [nM] | AC50 (HTT mRNA; RT-qPCR) [nM]
Cn1cc2cc(-c3ccc4c(=O)n(C5CCNCC5)ccc4n3)cc(F)c2n1 [Compound 1231] | < 100 | 100 to 1000 | 100 to 1000 | 100 to 1000 | 100 to 1000 |  |  | 100 to 1000
Cc1cn2cc(-c3ccc4c(=O)n(C5CCNCC5)ccc4n3)cc(C#N)c2n1 [Compound 1297] | < 100 | 100 to 1000 | 100 to 1000 | 100 to 1000 | 100 to 1000 |  |  | 100 to 1000
CCN1CCC(n2ncc3nc(-c4cc(C)c5nc(C)cn5n4)ccc3c2=O)CC1 [Compound 1308] | < 100 |  | 100 to 1000 | < 100 | 100 to 1000 |  |  | < 100
Cn1cc2cc(-c3ncc4c(=O)n(C5CCNCC5)ccc4n3)c(O)cc2n1 [Compound 1211] |  | 100 to 1000 | 100 to 1000 |  | < 100 | < 100 | 100 to 1000 | 100 to 1000
Cc1c(O)c(-c2ncc3c(=O)n([C@@H]4C[C@H]5C[C@@H]4CN5)ccc3n2)cc2cn(C)nc12 [Compound 1445, 6-[(1R,4R,5R)-2-azabicyclo[2.2.1]heptan-5-yl]-2(6-hydroxy-2,7-dimethyl-indazol-5-yl)pyrido[4,3-d]pyrimidin-5-one] | 100 to 1000 | > 10000 | > 10000 | > 10000 | 1000 to 10000 |  |  | > 10000
Cc1c(O)c(-c2ncc3c(=O)n(C45CCC(N)(CC4)C5)ccc3n2)cc2cn(C)nc12 [Compound 1428] | < 100 | 1000 to 10000 | > 10000 | 1000 to 10000 | < 100 |  |  | 1000 to 10000
Cc1cn2nc(-c3ccc4c(=O)n([C@@H]5CCNC5)ccc4n3)cc(C)c2n1 [Compound 1438, 2-(2,8-dimethylimidazo[1,2-b]pyridazin-6-yl)-6-[(3R)-pyrrolidin-3-yl]-1,6-naphthyridin-5-one] | < 100 | 1000 to 10000 | 1000 to 10000 | 1000 to 10000 | 1000 to 10000 |  |  | 1000 to 10000
Cc1cn2cc(-c3ccc4c(=O)n(C5CCNCC5)ccc4n3)cc(C)c2n1 [Compound 1241, 2-(2,8-dimethylimidazo[1,2-a]pyridin-6-yl)-6-(piperidin-4-yl)-1,6-naphthyridin-5(6H)-one] | < 100 | < 100 | 100 to 1000 | 100 to 1000 | < 100 |  |  | 100 to 1000
Cc1c(O)c(-c2ncc3c(=O)n(C4C[C@@H](C)N[C@H](C)C4)ccc3n2)cc2cn(C)nc12 (stereo partly drawn) [Compound 1454, 6-[(2R,6R)-2,6-dimethyl-4-piperidyl]-2-(6-hydroxy-2,7-dimethyl-indazol-5-yl)pyrido[4,3-d]pyrimidin-5-one] | < 100 | 1000 to 10000 | 1000 to 10000 | 100 to 1000 | 100 to 1000 |  |  | 100 to 1000
Cc1c(O)c(-c2ncc3c(=O)n(C4CCNC4)ccc3n2)cc2cn(C)nc12 (stereo not shown) [Compound 1222] |  | > 10000 | > 10000 |  | 1000 to 10000 | < 100 | 1000 to 10000 | 1000 to 10000
Cc1cn2cc(-c3ncc4c(=O)n([C@H]5CCNC5)ccc4n3)cc(F)c2n1 [Compound 1220] |  |  | 100 to 1000 |  | 100 to 1000 | < 100 | 100 to 1000 | 100 to 1000
Cc1cn2nc(-c3ccc4c(=O)n(C5CCN(CCF)CC5)ncc4n3)cc(C)c2n1 [Compound 1309] | < 100 |  | 100 to 1000 | < 100 | 100 to 1000 |  |  | < 100

Continued, in another order:

IC50 (SMN2 mRNA; [2]) [nM] | IC50 (Target C) [nM] | IC50 (HTT mRNA; [3]) [nM] | IC50 (HTT mRNA; [4]) [nM] | GI50 [1] [nM] | IC50 (SMN2 mRNA; [5]) [nM] | IC50 (HTT mRNA; [6]) [nM] | Compound | AC50 (HTT mRNA; RT-qPCR) [nM]
< 100 |  | 100 to 1000 | 100 to 1000 | 100 to 1000 |  |  | Cn1cc2cc(-c3ccc4c(=O)n(C5CCNC6(CC6)C5)ncc4n3)c(O)cc2n1 (stereo not shown) [Compound 1306] | 100 to 1000
 | > 10000 | > 10000 |  | > 10000 | > 10000 | > 10000 | CN1CCC(Nc2ccc3c(=O)n(-c4ccc5cn(C)nc5c4)cnc3c2)CC1 [Compound 203] | > 10000
 | > 10000 | > 10000 |  | 1000 to 10000 | 100 to 1000 | > 10000 | Cc1cn2cc(-c3cc4ccn(C5CCNC5)c(=O)c4cn3)cc(C#N)c2n1 (stereo not shown) [Compound 1214] | > 10000
< 100 | 100 to 1000 | 100 to 1000 | 100 to 1000 | 100 to 1000 |  |  | Cn1cc2cc(-c3ccc4c(=O)n([C@H]5CCNC5)ccc4n3)c(O)c(F)c2n1 [Compound 1451, 2-(7-fluoro-6-hydroxy-2-methyl-indazol-5-yl)-6-[(3S)-pyrrolidin-3-yl]-1,6-naphthyridin-5-one] | 100 to 1000
< 100 | < 100 | < 100 | < 100 | < 100 |  |  | Cn1cc2cc(-c3ccc4c(=O)n(C5CCNC6(CC6)C5)ccc4n3)c(O)cc2n1 (stereo not shown) [Compound 1242] | < 100
< 100 | 1000 to 10000 | 1000 to 10000 | 100 to 1000 | 100 to 1000 |  |  | Cc1c(O)c(-c2ncc3c(=O)n([C@@H]4CCN[C@H](C)C4)ccc3n2)cc2cn(C)nc12 [Compound 1434, 2-(6-hydroxy-2,7-dimethyl-indazol-5-yl)-6-(2-methyl-4-piperidyl)pyrido[4,3-d]pyrimidin-5-one] | 100 to 1000
< 100 | 1000 to 10000 | 1000 to 10000 | 100 to 1000 | 100 to 1000 |  |  | Cc1cn2cc(-c3ncc4c(=O)n([C@@H]5CCNC6(CC6)C5)ccc4n3)cc(F)c2n1 [Compound 1457, 6-[(7R)-4-azaspiro[2.5]octan-7-yl]-2-(8-fluoro-2-methyl-imidazo[1,2-a]pyridin-6-yl)pyrido[4,3-d]pyrimidin-5-one] | 100 to 1000
 | 100 to 1000 | 100 to 1000 |  | 100 to 1000 | < 100 | 100 to 1000 | Cn1cc2cc(-c3ncc4c(=O)n(C5CCNCC5)ccc4n3)cc(F)c2n1 [Compound 1212, 2-(7-fluoro-2-methyl-2H-indazol-5-yl)-6-(piperidin-4-yl)pyrido[4,3-d]pyrimidin-5(6H)-one] | 100 to 1000
< 100 | 100 to 1000 | 100 to 1000 | 100 to 1000 | 100 to 1000 |  |  | Cn1cc2cc(-c3ccc4c(=O)n([C@@H]5CCNC6(CC6)C5)ccc4n3)c(O)cc2n1 [Compound 1246] | 100 to 1000
 | 1000 to 10000 | > 10000 |  | 1000 to 10000 | < 100 | > 10000 | Cc1cn2cc(-c3ncc4c(=O)n([C@@H]5CCNC5)ccc4n3)cc(F)c2n1 [Compound 1228] | > 10000
 | 100 to 1000 | 100 to 1000 |  | 100 to 1000 | < 100 | 100 to 1000 | Cc1cn2cc(-c3cc4ccn(C5CCNCC5)c(=O)c4cn3)nc(C)c2n1 [Compound 1205, 6-(2,8-dimethylimidazo[1,2-a]pyrazin-6-yl)-2-(piperidin-4-yl)-2,7-naphthyridin-1(2H)-one] | 100 to 1000
100 to 1000 | > 10000 | > 10000 | > 10000 | 1000 to 10000 |  |  | Cc1cn2cc(-c3ccc4c(=O)n(C5CCNC5)ccc4n3)cc(F)c2n1 (stereo not shown) [Compound 1299] | > 10000
 | 1000 to 10000 | 100 to 1000 |  | 100 to 1000 | < 100 | 100 to 1000 | Cc1cc(-c2cc3ccn(C4CCNCC4)c(=O)c3cn2)cc2cn(C)nc12 [Compound 1204, 6-(2,7-dimethyl-2H-indazol-5-yl)-2-(piperidin-4-yl)-2,7-naphthyridin-1(2H)-one] | 100 to 1000
100 to 1000 |  | 1000 to 10000 | 100 to 1000 | 100 to 1000 |  |  | CCN1CCC(n2ncc3nc(-c4cc5cn(C)nc5cc4O)ccc3c2=O)CC1 [Compound 1310] | 100 to 1000
< 100 |  | 100 to 1000 | 100 to 1000 | 100 to 1000 |  |  | Cc1cn2nc(-c3ccc4c(=O)n(C5CCN(C)CC5)ncc4n3)cc(C)c2n1 [Compound 1311] | 100 to 1000
100 to 1000 |  | 1000 to 10000 | 1000 to 10000 | 1000 to 10000 |  |  | CN1CCC(n2ncc3nc(-c4cc5cn(C)nc5cc4O)ccc3c2=O)CC1 [Compound 1307] | 1000 to 10000
< 100 |  | < 100 | < 100 | 100 to 1000 |  |  | Cc1cn2nc(-c3ccc4c(=O)n(C5CCNCC5)ncc4n3)cc(C)c2n1 [Compound 1247] | < 100
